ChEMBL document CHEMBL4020848, “Antibacterial Activity Affected by the Conformational Flexibility in Glycine-Lysine Based α-Helical Antimicrobial Peptides” (J Med Chem, 2018)
The source made the active and inactive calls. The rule behind the calls is not given here.

Key:
Staphylococcus aureus [1] = experiment: Growth inhibition of Staphylococcus aureus ATCC 25923 measured every 10 mins for 4 hrs; assay type: functional
Escherichia coli [2] = experiment: Bactericidal activity against Escherichia coli ATCC 25922 after 18 hrs by microdilution method; assay type: functional; details: for MBC: ATCC 25922, 18 h, read-out: MBC=>99.9
Escherichia coli [3] = experiment: Induction of membrane permeabilization in Escherichia coli ATCC 25922 assessed as surface indentations at MIC after 1 hr by atomic force microscopic method; assay type: functional
Escherichia coli [4] = experiment: Antibacterial activity against Escherichia coli ATCC 25922 after 18 hrs by microdilution method; assay type: functional
Escherichia coli [5] = experiment: Antibacterial activity against clinical isolates of Escherichia coli after 18 hrs by microdilution method; assay type: functional
Acinetobacter baumannii [6] = experiment: Bactericidal activity against Acinetobacter baumannii ATCC 19606 after 18 hrs by microdilution method; assay type: functional; details: ATCC 19606 = CIP 70.34 = JCM 6841, 18 h, read-out: MBC=>99.9
Escherichia coli [7] = experiment: Induction of membrane permeabilization in Escherichia coli ATCC 25922 assessed as formation of pores/cavities at MIC after 1 hr by atomic force microscopic method; assay type: functional
Escherichia coli [8] = experiment: Induction of membrane permeabilization in Escherichia coli ATCC 25922 assessed as propidium iodide uptake preincubated up to 60 mins followed by propidium iodide addition by flow cytometry; assay type: functional
Pseudomonas aeruginosa [9] = experiment: Bactericidal activity against clinical isolates of Pseudomonas aeruginosa after 18 hrs by microdilution method; assay type: functional; details: read-out: MBC=>99.9
Klebsiella pneumoniae [10] = experiment: Bactericidal activity against Klebsiella pneumoniae ATCC 13883 after 18 hrs by microdilution method; assay type: functional; details: ATCC 13883, 18 h, read-out: MBC=>99.9
Acinetobacter baumannii [11] = experiment: Bactericidal activity against clinical isolates of Acinetobacter baumannii after 18 hrs by microdilution method; assay type: functional; details: read-out: MBC=>99.9
Pseudomonas aeruginosa [12] = experiment: Antibacterial activity against clinical isolates of Pseudomonas aeruginosa after 18 hrs by microdilution method; assay type: functional
Escherichia coli [13] = experiment: Induction of membrane permeabilization in Escherichia coli ATCC 25922 assessed as loss of pili/flagella at MBC after 1 hr by atomic force microscopic method; assay type: functional
Staphylococcus aureus [14] = experiment: Bactericidal activity against clinical isolates of Staphylococcus aureus after 18 hrs by microdilution method; assay type: functional; details: read-out: MBC=>99.9
Staphylococcus aureus [15] = experiment: Antibacterial activity against Staphylococcus aureus ATCC 25923 after 18 hrs by microdilution method; assay type: functional; details: ATCC 25923, 18 h
Klebsiella pneumoniae [16] = experiment: Antibacterial activity against Klebsiella pneumoniae ATCC 13883 after 18 hrs by microdilution method; assay type: functional; details: ATCC 13883, 18 h
Escherichia coli [17] = experiment: Induction of membrane permeabilization in Escherichia coli ATCC 25922 assessed as bleb formation at MIC after 1 hr by atomic force microscopic method; assay type: functional
Escherichia coli [18] = experiment: Induction of membrane permeabilization in Escherichia coli ATCC 25922 assessed as massive cell disruption/collapse at MBC after 1 hr by atomic force microscopic method; assay type: functional
Escherichia coli [19] = experiment: Induction of membrane permeabilization in Escherichia coli ATCC 25922 assessed as propidium iodide uptake at 0.25 to 1 times MIC preincubated up to 60 mins followed by propidium iodide addition by flow cytometry relative to control; assay type: functional
Staphylococcus aureus [20] = experiment: Bactericidal activity against Staphylococcus aureus ATCC 25923 after 18 hrs by microdilution method; assay type: functional; details: ATCC 25923, 18 h, read-out: MBC=>99.9
Pseudomonas aeruginosa [21] = experiment: Antibacterial activity against Pseudomonas aeruginosa ATCC 27853 after 18 hrs by microdilution method; assay type: functional; details: ATCC 27853, 18 h
Acinetobacter baumannii [22] = experiment: Antibacterial activity against Acinetobacter baumannii ATCC 19606 after 18 hrs by microdilution method; assay type: functional; details: ATCC 19606 = CIP 70.34 = JCM 6841, 18 h
Escherichia coli [23] = experiment: Induction of membrane permeabilization in Escherichia coli ATCC 25922 assessed as loss of pili/flagella up to 128 uM after 1 hr by atomic force microscopic method; assay type: functional
Klebsiella pneumoniae [24] = experiment: Antibacterial activity against clinical isolates of Klebsiella pneumoniae after 18 hrs by microdilution method; assay type: functional
Escherichia coli [25] = experiment: Growth inhibition of Escherichia coli ATCC 25922 measured every 10 mins for 4 hrs; assay type: functional
Acinetobacter baumannii [26] = experiment: Antibacterial activity against clinical isolates of Acinetobacter baumannii after 18 hrs by microdilution method; assay type: functional
Escherichia coli [27] = experiment: Bactericidal activity against clinical isolates of Escherichia coli after 18 hrs by microdilution method; assay type: functional; details: read-out: MBC=>99.9
Staphylococcus aureus [28] = experiment: Antibacterial activity against clinical isolates of Staphylococcus aureus after 18 hrs by microdilution method; assay type: functional
Klebsiella pneumoniae [29] = experiment: Bactericidal activity against clinical isolates of Klebsiella pneumoniae after 18 hrs by microdilution method; assay type: functional; details: read-out: MBC=>99.9
Pseudomonas aeruginosa [30] = experiment: Bactericidal activity against Pseudomonas aeruginosa ATCC 27853 after 18 hrs by microdilution method; assay type: functional; details: ATCC 27853, 18 h, read-out: MBC=>99.9
[31] = Selectivity index, ratio of HC50 for human RBC to MIC for Staphylococcus aureus
[32] = Selectivity index, ratio of HC50 for human RBC to MIC for Acinetobacter baumannii ATCC 19606
[33] = Selectivity index, ratio of HC50 for human RBC to MIC for Klebsiella pneumoniae
[34] = Selectivity index, ratio of HC50 for human RBC to MIC for Escherichia coli
[35] = Selectivity index, ratio of HC50 for human RBC to MIC for Acinetobacter baumannii
[36] = Selectivity index, ratio of HC50 for human RBC to MIC for Klebsiella pneumoniae ATCC 13883
[37] = Selectivity index, ratio of HC50 for human RBC to MIC for Escherichia coli ATCC 25922
[38] = Selectivity index, ratio of HC50 for human RBC to MIC for Pseudomonas aeruginosa ATCC 27853
[39] = Selectivity index, ratio of HC50 for human RBC to MIC for Pseudomonas aeruginosa
[40] = Selectivity index, ratio of HC50 for human RBC to MIC for Staphylococcus aureus ATCC 25923
Escherichia coli [41] = experiment: Induction of membrane permeabilization in Escherichia coli ATCC 25922 assessed as propidium iodide uptake at MIC preincubated for 15 mins followed by propidium iodide addition by flow cytometry relative to control; assay type: functional
Escherichia coli [42] = experiment: Induction of membrane permeabilization in Escherichia coli ATCC 25922 assessed as loss of pili/flagella at MIC after 1 hr by atomic force microscopic method; assay type: functional
Escherichia coli [43] = experiment: Ratio of MIC to IC50 for Escherichia coli ATCC 25922; assay type: functional

MIC (Escherichia coli [4]; ATCC 25922, 18 h) | MIC (Escherichia coli [5]) | IC50 (Escherichia coli [8]) | MIC (Pseudomonas aeruginosa [12]) | MIC (Staphylococcus aureus [15]) | MIC (Klebsiella pneumoniae [16]) | MIC (Pseudomonas aeruginosa [21]) | Substance | IC50 (Staphylococcus aureus [1]) | MBC (Escherichia coli [2]) | Activity (Escherichia coli [3]) | MBC (Acinetobacter baumannii [6]) | Activity (Escherichia coli [7]) | MBC (Pseudomonas aeruginosa [9]) | MBC (Klebsiella pneumoniae [10]) | MBC (Acinetobacter baumannii [11]) | Activity (Escherichia coli [13]) | MBC (Staphylococcus aureus [14]) | Activity (Escherichia coli [17]) | Activity (Escherichia coli [18]) | MBC (Staphylococcus aureus [20]) | further results
> 64 µM | > 64 µM | > 128000 nM | > 64 µM | > 64 µM | > 64 µM | > 64 µM | H-KIAGKAGKIAKIAGKAGKIA-NH2 | > 128000 nM | > 64 µM | Active | > 64 µM | Active | > 64 µM | > 64 µM | > 64 µM | Active | > 64 µM | Active | Active | > 64 µM | Activity (Escherichia coli [19]): <5%; MIC (Acinetobacter baumannii [22]): > 64 µM; Activity (Escherichia coli [23]): inactive; MIC (Klebsiella pneumoniae [24]): > 64 µM; IC50 (Escherichia coli [25]): > 128000 nM; MIC (Acinetobacter baumannii [26]): > 64 µM; MBC (Escherichia coli [27]): > 64 µM; MIC (Staphylococcus aureus [28]): > 64 µM; MBC (Klebsiella pneumoniae [29]): > 64 µM; MBC (Pseudomonas aeruginosa [30]): > 64 µM
1 to 2 µM | 32 µM | 200 nM | 32 µM | 4 µM | 2 to 4 µM | 8 to 16 µM | H-KIALKALKALKALGKALKAL-NH2 | 400 nM | 2 to 4 µM | Active | 2 µM | Active | 32 µM | 4 µM | 32 µM | Active | 4 to 8 µM | Active | Active | 4 µM | Selectivity Index [31]: 2 to 6; Selectivity Index [32]: 5; Selectivity Index [33]: < 1; Selectivity Index [34]: < 1; Selectivity Index [35]: < 1; Selectivity Index [36]: 2 to 6; Selectivity Index [37]: 5 to 10; Selectivity Index [38]: < 1; Selectivity Index [39]: < 1; Selectivity Index [40]: 2.5; Activity (Escherichia coli [41]): >80%; MIC (Acinetobacter baumannii [22]): 2 µM; MIC (Klebsiella pneumoniae [24]): 16 to 32 µM; IC50 (Escherichia coli [25]): 350 nM; MIC (Acinetobacter baumannii [26]): 16 to 32 µM; MBC (Escherichia coli [27]): 32 µM; MIC (Staphylococcus aureus [28]): 2 to 4 µM; MBC (Klebsiella pneumoniae [29]): 32 to 64 µM; MBC (Pseudomonas aeruginosa [30]): 16 µM
4 µM | 64 µM | 600 nM | 8 to 16 µM | 16 to 32 µM | 2 to 4 µM | 8 to 16 µM | H-KIAKGALKALKIAKGALKAL-NH2 | 1600 nM | 16 µM | Active | 2 µM | Active | 16 µM | 4 µM | > 64 µM | Active | 16 µM | Active | Active | 32 µM | Selectivity Index [31]: 6; Selectivity Index [32]: 50 to 100; Selectivity Index [33]: 12; Selectivity Index [34]: < 1; Ratio (Escherichia coli [43]): >10; Selectivity Index [35]: < 1; Selectivity Index [36]: 25 to 50; Selectivity Index [37]: 25; Selectivity Index [38]: 6 to 12; Selectivity Index [39]: 6 to 12; Selectivity Index [40]: 3 to 6; Activity (Escherichia coli [41]): >80%; MIC (Acinetobacter baumannii [22]): 1 to 2 µM; MIC (Klebsiella pneumoniae [24]): 8 µM; IC50 (Escherichia coli [25]): 300 nM; MIC (Acinetobacter baumannii [26]): > 64 µM; MBC (Escherichia coli [27]): > 64 µM; MIC (Staphylococcus aureus [28]): 16 µM; MBC (Klebsiella pneumoniae [29]): 16 µM; MBC (Pseudomonas aeruginosa [30]): 16 to 32 µM

The remaining lines, values behind:

Substance | MIC (Escherichia coli [4]; ATCC 25922, 18 h) | MIC (Escherichia coli [5]) | IC50 (Escherichia coli [8]) | MIC (Pseudomonas aeruginosa [12]) | MIC (Staphylococcus aureus [15]) | MIC (Klebsiella pneumoniae [16]) | MIC (Pseudomonas aeruginosa [21]) | IC50 (Staphylococcus aureus [1]) | MBC (Escherichia coli [2]) | Activity (Escherichia coli [3]) | MBC (Acinetobacter baumannii [6]) | Activity (Escherichia coli [7]) | MBC (Pseudomonas aeruginosa [9]) | MBC (Klebsiella pneumoniae [10]) | MBC (Acinetobacter baumannii [11]) | Activity (Escherichia coli [13]) | MBC (Staphylococcus aureus [14]) | Activity (Escherichia coli [17]) | Activity (Escherichia coli [18]) | MBC (Staphylococcus aureus [20]) | further results
COLISTIN | – | – | – | – | – | – | – | – | – | – | – | – | – | – | – | Active | – | – | – | – | MBC=>99.9 (Escherichia coli [2]): 0.5 µM; MIC (Escherichia coli [4]): 0.5 µM; Activity (Escherichia coli [42]): Active
H-KIGKALGKALKALGKALGKA-NH2 | 8 µM | 32 to 64 µM | 1400 nM | 16 to 32 µM | 16 µM | 16 µM | 8 µM | 2300 nM | 16 µM | Active | 2 µM | Active | 32 µM | 32 µM | 64 µM | Active | 16 to 32 µM | Active | Active | 32 µM | Selectivity Index [31]: < 1; Selectivity Index [32]: 5; Selectivity Index [33]: < 1; Selectivity Index [34]: < 1; Selectivity Index [35]: < 1; Selectivity Index [36]: < 1; Selectivity Index [37]: 2; Selectivity Index [38]: 2; Selectivity Index [39]: < 1; Selectivity Index [40]: < 1; Activity (Escherichia coli [41]): >80%; MIC (Acinetobacter baumannii [22]): 2 µM; MIC (Klebsiella pneumoniae [24]): 16 µM; IC50 (Escherichia coli [25]): 700 nM; MIC (Acinetobacter baumannii [26]): 32 to 64 µM; MBC (Escherichia coli [27]): 64 µM; MIC (Staphylococcus aureus [28]): 16 µM; MBC (Klebsiella pneumoniae [29]): 32 µM; MBC (Pseudomonas aeruginosa [30]): 16 µM
